Test results: patent US20100152434A1, “Protein Kinase-binding Nucleosides and Associated Methods” (priority 2007, published 2010)
Read-outs that look alike come from different tables or passages of the source.

Legend:
MDA-MB-435 [1] = assay: cells; conditions: Homo sapiens, MDA-MB-435, 48 h
UACC-257 = assay: cells; conditions: Homo sapiens, UACC-257, 48 h
ACHN [2] = assay: cells; conditions: Homo sapiens, 48 h
RPMI-8226 [3] = assay: cells; conditions: Homo sapiens, RPMI-8226, 48 h
ACHN [4] = test system: ACHN
NCI-H522 = assay: cells; conditions: Homo sapiens, NCI-H522, 48 h
HCT-116 [5] = test system: HCT-116
MDA-MB-435 [6] = conditions: MDA-MB-435
A498 [7] = assay: cells; conditions: Homo sapiens, A498, 48 h
A498 [8] = test system: A498
M14 = assay: cells; conditions: Homo sapiens, M14, 48 h
NCI-H226 = assay: cells; conditions: Homo sapiens, NCI-H226, 48 h
A549/ATCC = assay: cells; conditions: Homo sapiens, A549, 48 h
KM12 = assay: cells; conditions: Homo sapiens, KM12, 48 h
HCT-116 [9] = assay: cells; conditions: Homo sapiens, HCT-116, 48 h
RPMI-8226 [10] = test system: RPMI-8226
HT29 = assay: cells; conditions: Homo sapiens, HT-29, 48 h
[11] = Log10 Concentration −4.0, Molar
[12] = Log10 Concentration −5.0, Molar
[13] = Log10 Concentration −6.0, Molar
[14] = Log10 Concentration −7.0, Molar
[15] = Log10 Concentration −8.0, Molar

SMILES: CCOC(=O)C[C@@H]1C(O[Si](C)(C)C(C)(C)C)[C@H](n2cnc3c(NC(=O)Nc4ccccc4)ncnc32)O[C@@H]1CNC(=O)NC (stereo partly drawn) [Compound 10]
- TGI (OVCAR-5; 48 h): >1.00E−4 Molar
- Percent Growth (OVCAR-5; [11]): 27%
- Percent Growth (OVCAR-5; [12]): 72%
- Percent Growth (OVCAR-5; [13]): 95%
- Percent Growth (OVCAR-5; [14]): 103%
- Percent Growth (OVCAR-5; [15]): 104%
- GI50 (MDA-MB-435 [1]): 6.21 µM
- CC50 (MDA-MB-435 [1]; read-out: LC50): > 100 µM
- GI50 (UACC-257): 5.68 µM
- CC50 (UACC-257; read-out: LC50): > 100 µM
- GI50 (ACHN [2]): 8.55 µM
- CC50 (ACHN [2]; read-out: LC50): > 100 µM
- GI50 (RPMI-8226 [3]): 1.09 µM
- CC50 (RPMI-8226 [3]; read-out: LC50): 59 µM
- TGI (UO-31; 48 h): 2.95E−5 Molar
- Percent Growth (UO-31; [11]): −69%
- Percent Growth (UO-31; [12]): 61%
- Percent Growth (UO-31; [13]): 82%
- Percent Growth (UO-31; [14]): 87%
- Percent Growth (UO-31; [15]): 87%
- TGI (ACHN [4]; 48 h): >1.00E−4 Molar
- Percent Growth (ACHN [4]; [11]): 35%
- Percent Growth (ACHN [4]; [12]): 47%
- Percent Growth (ACHN [4]; [13]): 96%
- Percent Growth (ACHN [4]; [14]): 97%
- Percent Growth (ACHN [4]; [15]): 107%
- GI50 (NCI-H522): 4.36 µM
- CC50 (NCI-H522; read-out: LC50): > 100 µM
- TGI (HCT-116 [5]; 48 h): 1.61E−5 Molar
- Percent Growth (HCT-116 [5]; [11]): −88%
- Percent Growth (HCT-116 [5]; [12]): 23%
- Percent Growth (HCT-116 [5]; [13]): 78%
- Percent Growth (HCT-116 [5]; [14]): 113%
- Percent Growth (HCT-116 [5]; [15]): 93%
- TGI (TK-10; 48 h): 4.05E−5 Molar
- Percent Growth (TK-10; [11]): −38%
- Percent Growth (TK-10; [12]): 59%
- Percent Growth (TK-10; [13]): 105%
- Percent Growth (TK-10; [14]): 103%
- Percent Growth (TK-10; [15]): 98%
- TGI (BT-549; 48 h): >1.00E−4 Molar
- Percent Growth (BT-549; [11]): 51%
- Percent Growth (BT-549; [12]): 67%
- Percent Growth (BT-549; [13]): 110%
- Percent Growth (BT-549; [14]): 109%
- Percent Growth (BT-549; [15]): 104%
- TGI (COLO 205; 48 h): >1.00E−4 Molar
- Percent Growth (COLO 205; [11]): 3%
- Percent Growth (COLO 205; [12]): 20%
- Percent Growth (COLO 205; [13]): 93%
- Percent Growth (COLO 205; [14]): 97%
- Percent Growth (COLO 205; [15]): 102%
- TGI (MCF7; 48 h): 4.51E−5 Molar
- Percent Growth (MCF7; [11]): −8%
- Percent Growth (MCF7; [12]): 16%
- Percent Growth (MCF7; [13]): 89%
- Percent Growth (MCF7; [14]): 91%
- Percent Growth (MCF7; [15]): 96%
- TGI (SK-MEL-5; 48 h): >1.00E−4 Molar
- Percent Growth (SK-MEL-5; [11]): 11%
- Percent Growth (SK-MEL-5; [12]): 28%
- Percent Growth (SK-MEL-5; [13]): 89%
- Percent Growth (SK-MEL-5; [14]): 100%
- Percent Growth (SK-MEL-5; [15]): 96%
- TGI (MDA-MB-435 [6]; 48 h): >1.00E−4 Molar
- Percent Growth (MDA-MB-435 [6]; [11]): 8%
- Percent Growth (MDA-MB-435 [6]; [12]): 40%
- Percent Growth (MDA-MB-435 [6]; [13]): 89%
- Percent Growth (MDA-MB-435 [6]; [14]): 92%
- Percent Growth (MDA-MB-435 [6]; [15]): 95%
- GI50 (A498 [7]): 3.34 µM
- CC50 (A498 [7]; read-out: LC50): > 100 µM
- TGI (A498 [8]; 48 h): 1.71E−5 Molar
- Percent Growth (A498 [8]; [11]): −41%
- Percent Growth (A498 [8]; [12]): 13%
- Percent Growth (A498 [8]; [13]): 91%
- Percent Growth (A498 [8]; [14]): 92%
- Percent Growth (A498 [8]; [15]): 95%
- GI50 (M14): 2.51 µM
- CC50 (M14; read-out: LC50): 78.6 µM
- TGI (SNB-19; 48 h): >1.00E−4 Molar
- Percent Growth (SNB-19; [11]): 12%
- Percent Growth (SNB-19; [12]): 82%
- Percent Growth (SNB-19; [13]): 87%
- Percent Growth (SNB-19; [14]): 95%
- Percent Growth (SNB-19; [15]): 92%
- GI50 (NCI-H226): > 100 µM
- CC50 (NCI-H226; read-out: LC50): > 100 µM
- GI50 (A549/ATCC): 4.18 µM
- CC50 (A549/ATCC; read-out: LC50): 79.1 µM
- GI50 (KM12): 3.95 µM
- CC50 (KM12; read-out: LC50): > 100 µM
- TGI (T-47D; 48 h): >1.00E−4 Molar
- Percent Growth (T-47D; [11]): 13%
- Percent Growth (T-47D; [12]): 16%
- Percent Growth (T-47D; [13]): 73%
- Percent Growth (T-47D; [14]): 89%
- Percent Growth (T-47D; [15]): 91%
- GI50 (HCT-116 [9]): 3.2 µM
- CC50 (HCT-116 [9]; read-out: LC50): 45.6 µM
- TGI (RPMI-8226 [10]; 48 h): 4.57E−6 Molar
- Percent Growth (RPMI-8226 [10]; [11]): −57%
- Percent Growth (RPMI-8226 [10]; [12]): −27%
- Percent Growth (RPMI-8226 [10]; [13]): 53%
- Percent Growth (RPMI-8226 [10]; [14]): 75%
- Percent Growth (RPMI-8226 [10]; [15]): 77%
- GI50 (HT29): 4.2 µM
- CC50 (HT29; read-out: LC50): > 100 µM
